Structures can show the parent of a compound that is named as a salt. Where two headings read alike, the source gives them in different places.
Key:
[1] = system: acetylated α-tubulin (AcTub) levels in QBI293 cells; experiment: QBI293 cell assay of MT stabilization: acetylated α-tubulin ELISA; format: cell-based
Protocol: (§1) All test compounds were initially screened in the same cell-based (QBI293) assay of MT stabilization used in our previous SAR studies[11],[12] so as to allow direct comparison with literature data. Changes in levels of acetylated α-tubulin (AcTub) and total α-tubulin (α-Tub), relative to vehicle-treated negative control cells, were determined after 4 h of incubation with test compounds at 1 and 10 μM. To account for possible day-to-day differences in the responsiveness of cells to MT-stabilizing treatment, compound-dependent changes in AcTub levels relative to DMSO-treated cells were also normalized to the corresponding changes caused by 100 nM of 5 that was used as a positive control. In addition, docking studies, binding free energy calculations, and in selected cases, molecular dynamic simulations were conducted using an X-ray structure of the vinca and seventh sites (PDB: 5NJH,[10]7CLD[13]). […] For selected compounds, additional studies included testing in the QBI293 cell AcTub assay at additional compound concentrations, and/or evaluation of test compounds for their ability to prevent MT collapse in primary neuron cultures treated with the phosphatase inhibitor, okadaic […] (OA). Finally, cytotoxicity studies in QBI293 and HeLa cells were also conducted for representative examples (Supporting Information).
(§2) Compound-induced changes in acetylated-tubulin and α-tubulin in QBI293 cells or primary mouse or rat neurons were as previously described.[11],[12] […] The plated cells were incubated overnight, after which the medium was aspirated and fresh medium containing vehicle (0.25–0.3% DMSO) or test compound was added. Test compounds were prepared as 4–20 mM stock solutions in 100% DMSO, and these were diluted in culture medium prior to addition to the QBI293 cells. After 4 h incubation, whole-cell extracts were prepared from the QBI293 cells as described[11] and the supernatant fraction from each sample was assessed for protein content by bicinchoninic acid (BCA) assay. The amount of acetyl-tubulin (AcTub) and α-tubulin (αTub) within the cell extract samples was quantified using specific enzyme-linked immunosorbent assays (ELISA), as previously described.[11] Acetyl-tubulin levels were determined in a similar manner in rat or mouse cortical neuron cultures in which embryonic dissociated cortical neurons were plated at 3 × 10^5 cells/well in poly-D-lysine-coated 12-well plates, essentially as previously described.[11] […] Culture homogenates were prepared for the determination of AcTub levels by ELISA as previously described.[11]

[2] = system: total α-tubulin (α-Tub) levels in QBI293 cells; experiment: QBI293 cell assay: total α-tubulin ELISA; format: cell-based
Protocol: as §1, §2

[3] = 4 h, 1 uM compound, read-out: AcTub (1uM)
[4] = 4 h, 10 uM compound, read-out: AcTub (10 uM)
[5] = 4 h incubation, 1 μM, read-out: AcTub 1 μM, fold-change compared to vehicle (DMSO)-treated cells
[6] = 4 h incubation, 10 μM, read-out: AcTub 10 μM, fold-change compared to vehicle (DMSO)-treated cells
[7] = 4 h, 1 uM compound, read-out: AlfaTub (1uM)
[8] = 4 h, 10 uM compound, read-out: AlfaTub (10 uM)
[9] = 4 h incubation, 1 μM, read-out: α-Tub 1 μM, fold-change compared to vehicle (DMSO)-treated cells
[10] = 4 h incubation, 10 μM, read-out: α-Tub 10 μM, fold-change compared to vehicle (DMSO)-treated cells

Structure (SMILES)	AcTub (1 uM - normalized) ([1]; 1 uM compound)	AcTub (10 uM - normalized) ([1]; 10 uM compound)	fold induction at 1 µM [1, 3]	fold induction at 10 µM [1, 4]	AcTub 1 μM, fold-change compared to positive control compound 5 (100 nM) (in parentheses) ([1]; 4 h incubation, 1 μM) [fold-change]	fold induction at 1 µM [1, 5]	AcTub 10 μM, fold-change compared to positive control compound 5 (100 nM) (in parentheses) ([1]; 4 h incubation, 10 μM) [fold-change]	fold induction at 10 µM [1, 6]	fold induction at 1 µM [2, 7]	fold induction at 10 µM [2, 8]	total α-Tub at higher (30 μM) concentration ([2]; 4 h, 30 μM)	fold induction at 1 µM [2, 9]	fold induction at 10 µM [2, 10]
C[C@H](Nc1c(-c2c(F)cc(C#CCCCO)cc2F)c(Cl)nc2ncnn12)C(F)(F)F [Compound 43, (S)-5-(4-(5-Chloro-7-((1,1,1-trifluoropropan-2-yl)amino)-[1,2,4]triazolo[1,5-a]pyrimidin-6-yl)-3,5-difluorophenyl)pent-4-yn-1-ol]	2.29	1.93	17.1	14.4	2.29	17.1 ± 0.5	1.93	14.4 ± 0.6	0.93	0.87	reduction in total tubulin levels could be detected only at higher concentrations	0.93 ± 0.02	0.87 ± 0.03
CC(C)[C@@H](C)Nc1c(-c2c(F)cc(C#CCN(C)C)cc2F)c(Cl)nc2ncnn12 [Compound 47, (R)-5-Chloro-6-(4-(3-(dimethylamino)prop-1-yn-1-yl)-2,6-difluorophenyl)-N-(3-methylbutan-2-yl)-[1,2,4]triazolo[1,5-a]pyrimidin-7-amine]	0.40	1.4	2.21	7.7	0.40	2.21 ± 0.6	1.40	7.68 ± 0.85	0.98	1.03		0.98 ± 0.04	1.03 ± 0.04
C[C@@H](Nc1c(-c2c(F)cc(C#CCCN)cc2F)c(Cl)nc2ncnn12)C(C)(C)C [Compound 57, (R)-6-(4-(4-Aminobut-1-yn-1-yl)-2,6-difluorophenyl)-5-chloro-N-(3,3-dimethylbutan-2-yl)-[1,2,4]triazolo[1,5-a]pyrimidin-7-amine Hydrochloride]	0.83	1.21	2.49	3.66	0.83	2.49 ± 0.17	1.21	3.66 ± 0.58	0.96	0.91		0.96 ± 0.026	0.91 ± 0.12
CN(C)CCCOc1cc(F)c(-c2c(Cl)nc3ncnn3c2NCC2(C(F)(F)F)CC2)c(F)c1 [Compound 29, 5-Chloro-6-(4-(3-(dimethylamino)propoxy)-2,6-difluorophenyl)-N-((1-(trifluoromethyl)cyclopropyl)methyl)-[1,2,4]triazolo[1,5-a]pyrimidin-7-amine]	0.63	0.14	3.75	0.81	0.63	3.75 ± 0.13	0.14	0.81 ± 0.09	0.82	1.24		0.82 ± 0.01	1.24 ± 0.13
CNCC#Cc1cc(F)c(-c2c(Cl)nc3ncnn3c2N[C@H](C)C(C)(C)C)c(F)c1 [Compound 59, (R)-5-Chloro-6-(2,6-difluoro-4-(3-(methylamino)prop-1-yn-1-yl)phenyl)-N-(3,3-dimethylbutan-2-yl)-[1,2,4]triazolo[1,5-a]pyrimidin-7-amine Hydrochloride]	0.81	1.16	6.03	8.67	0.81	6.03 ± 0.64	1.16	8.67 ± 0.16	0.93	1		0.93 ± 0.02	1 ± 0.03
CC1(CNc2c(-c3c(F)cc(F)cc3F)c(Cl)nc3ncnn23)CC1 [Compound 13, 5-Chloro-N-((1-methylcyclopropyl)methyl)-6-(2,4,6-trifluorophenyl)-[1,2,4]triazolo[1,5-a]pyrimidin-7-amine]	0.26	0.49	2.68	5.06	0.26	2.68 ± 0.24	0.49	5.06 ± 0.23	1.04	0.97		1.04 ± 0.07	0.97 ± 0.02
C[C@H](Nc1c(-c2c(F)cc(OCCCCO)cc2F)c(Cl)nc2ncnn12)C(F)(F)F [Compound 19, (S)-4-(4-(5-Chloro-7-((1,1,1-trifluoropropan-2-yl)amino)-[1,2,4]triazolo[1,5-a]pyrimidin-6-yl)-3,5-difluorophenoxy)butan-1-ol]	0.59	0.6	7.3	7.04	0.59	7.3 ± 1.51	0.6	7.04 ± 0.04	0.62	0.35		0.62 ± 0.05	0.35 ± 0.04
CN(C)CCCOc1cc(F)c(-c2c(Cl)nc3ncnn3c2NCC2CCC2)c(F)c1 [Compound 30, 5-Chloro-N-(cyclobutylmethyl)-6-(4-(3-(dimethylamino)propoxy)-2,6-difluorophenyl)-[1,2,4]triazolo[1,5-a]pyrimidin-7-amine]	0.61	0.15	1.49	0.37	0.61	1.49 ± 0.18	0.15	0.37 ± 0.12	0.8	0.93		0.8 ± 0.03	0.93 ± 0.05
CN(C)CCCOc1cc(F)c(-c2c(Cl)nc3ncnn3c2NCC(C)(C)C)c(F)c1 [Compound 26, 5-Chloro-6-(4-(3-(dimethylamino)propoxy)-2,6-difluorophenyl)-N-neopentyl-[1,2,4]triazolo[1,5-a]pyrimidin-7-amine]	1.12	0.1	5.98	0.52	1.12	5.98 ± 0.11	0.10	0.52 ± 0.07	0.67	0.73		0.69 ± 0.03	0.73 ± 0.07
